Laboratory results: the supplement of paper PMC10307832

What was measured:
Test in all cases: relative viability (nuclei count vs DMSO), 5 days (fraction); higher = more cells survive
AZD8055 + Bortezomib = compound: COc1ccc(-c2ccc3c(N4CCOC[C@@H]4C)nc(N4CCOC[C@@H]4C)nc3n2)cc1CO [AZD8055] + CC(C)C[C@H](NC(=O)[C@H](Cc1ccccc1)NC(=O)c1cnccn1)B(O)O [Bortezomib] (partner 0.002 µM)
In short: (§1)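 Each reported value is a median over duplicate plates. It expresses relative viability: treated-well nuclei count divided by vehicle-well nuclei count. Lung cancer cell lines in 1536-well plates were dosed by pin tool a day after seeding, alone with one drug or with a fixed anchor-drug dose plus five library-drug doses (not always all listed) in √10 steps, and nuclei were counted after 5 days.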

AZD8055 + Lapatinib = compound: COc1ccc(-c2ccc3c(N4CCOC[C@@H]4C)nc(N4CCOC[C@@H]4C)nc3n2)cc1CO [AZD8055] + CS(=O)(=O)CCNCc1ccc(-c2ccc3ncnc(Nc4ccc(OCc5cccc(F)c5)c(Cl)c4)c3c2)o1 [Lapatinib] (partner 2 µM)
In short: as §1

AZD8055 + Decitabine = compound: COc1ccc(-c2ccc3c(N4CCOC[C@@H]4C)nc(N4CCOC[C@@H]4C)nc3n2)cc1CO [AZD8055] + Nc1ncn([C@H]2C[C@H](O)[C@@H](CO)O2)c(=O)n1 [Decitabine] (partner 2 µM)
In short: as §1

AZD8055 + AZD7762 = compound: COc1ccc(-c2ccc3c(N4CCOC[C@@H]4C)nc(N4CCOC[C@@H]4C)nc3n2)cc1CO [AZD8055] + NC(=O)Nc1cc(-c2cccc(F)c2)sc1C(=O)N[C@H]1CCCNC1 [AZD7762] (partner 0.2 µM)
In short: as §1

| Cell Line | relative viability (AZD8055 + Bortezomib; first compound 0.01 µM) | relative viability (AZD8055 + Bortezomib; first compound 0.03162 µM) | relative viability (AZD8055 + Bortezomib; first compound 0.1 µM) | relative viability (AZD8055 + Bortezomib; first compound 0.3162 µM) | relative viability (AZD8055 + Bortezomib; first compound 1 µM) | relative viability (AZD8055 + Lapatinib; first compound 0.01 µM) | relative viability (AZD8055 + Lapatinib; first compound 0.03162 µM) | relative viability (AZD8055 + Lapatinib; first compound 0.1 µM) | relative viability (AZD8055 + Lapatinib; first compound 0.3162 µM) | relative viability (AZD8055 + Lapatinib; first compound 1 µM) | relative viability (AZD8055 + Decitabine; first compound 0.01 µM) | relative viability (AZD8055 + Decitabine; first compound 0.03162 µM) | relative viability (AZD8055 + Decitabine; first compound 0.1 µM) | relative viability (AZD8055 + Decitabine; first compound 0.3162 µM) | relative viability (AZD8055 + Decitabine; first compound 1 µM) | relative viability (AZD8055 + AZD7762; first compound 0.01 µM) | relative viability (AZD8055 + AZD7762; first compound 0.03162 µM) | relative viability (AZD8055 + AZD7762; first compound 0.1 µM) | relative viability (AZD8055 + AZD7762; first compound 0.3162 µM) | relative viability (AZD8055 + AZD7762; first compound 1 µM) |
| --- | --- | --- | --- | --- | --- | --- | --- | --- | --- | --- | --- | --- | --- | --- | --- | --- | --- | --- | --- | --- |
| NCI-H520 | 0.623 | 0.185 | 0.16 | 0.127 | 0.147 | 0.716 | 0.344 | 0.265 | 0.142 | 0.167 | 0.486 | 0.242 | 0.229 | 0.176 | 0.165 |  |  |  |  |  |
| NCI-H522 |  |  |  |  |  |  |  |  |  |  | 0.737 | 0.591 | 0.619 | 0.527 | 0.462 | 0.847 | 0.799 | 0.647 | 0.532 | 0.569 |
| NCI-H661 | 1.09 | 0.619 | 0.758 | 0.396 | 0.295 | 0.434 | 0.43 | 0.414 | 0.307 | 0.256 | 0.502 | 0.482 | 0.449 | 0.359 | 0.331 |  |  |  |  |  |
| NCI-H1299 | 1.08 | 1.05 | 1.11 | 0.931 | 0.576 | 0.974 | 1.07 | 0.98 | 0.758 | 0.439 |  |  |  |  |  |  |  |  |  |  |
| NCI-H1395 |  |  |  |  |  | 0.939 | 0.776 | 0.771 | 0.616 | 0.462 | 0.767 | 0.585 | 0.615 | 0.419 | 0.506 | 0.384 | 0.405 | 0.443 | 0.34 | 0.419 |
| NCI-H1563 | 0.862 | 0.808 | 0.758 | 0.599 | 0.773 | 0.881 | 0.836 | 0.756 | 0.644 | 0.751 |  |  |  |  |  |  |  |  |  |  |
| NCI-H1648 |  |  |  |  |  |  |  |  |  |  | 0.422 | 0.504 | 0.42 | 0.277 | 0.261 | 0.708 | 0.804 | 0.639 | 0.413 | 0.261 |
| NCI-H1650 | 0.299 | 0.182 | 0.215 | 0.208 | 0.214 | 0.767 | 0.731 | 0.71 | 0.452 | 0.44 | 0.535 | 0.432 | 0.439 | 0.384 | 0.358 |  |  |  |  |  |
| NCI-H1703 | 0.278 | 0.231 | 0.18 | 0.181 | 0.194 | 0.798 | 0.726 | 0.879 | 0.427 | 0.313 |  |  |  |  |  | 0.127 | 0.125 | 0.115 | 0.115 | 0.095 |
| NCI-H1793 |  |  |  |  |  | 0.422 | 0.346 | 0.305 | 0.308 | 0.276 | 0.435 | 0.219 | 0.207 | 0.181 | 0.221 | 0.379 | 0.264 | 0.197 | 0.145 | 0.127 |
| NCI-H1944 |  |  |  |  |  | 0.766 | 0.655 | 0.615 | 0.367 | 0.336 | 0.429 | 0.349 | 0.402 | 0.319 | 0.226 | 0.455 | 0.453 | 0.393 | 0.268 | 0.202 |
| NCI-H2009 | 1.14 | 0.649 | 0.845 | 0.35 | 0.264 | 1.15 | 0.74 | 0.919 | 0.396 | 0.316 | 0.376 | 0.451 | 0.376 | 0.305 | 0.268 |  |  |  |  |  |
| NCI-H2023 | 0.837 | 0.664 | 0.356 | 0.136 | 0.137 | 0.971 | 0.611 | 0.361 | 0.148 | 0.132 | 0.243 | 0.161 | 0.175 | 0.129 | 0.118 |  |  |  |  |  |
| NCI-H2170 |  |  |  |  |  | 0.242 | 0.231 | 0.229 | 0.231 | 0.228 | 0.537 | 0.363 | 0.456 | 0.252 | 0.218 | 1.04 | 0.733 | 0.502 | 0.293 | 0.226 |
| NCI-H2228 | 0.877 | 0.507 | 0.315 | 0.198 | 0.29 | 1.01 | 0.709 | 0.338 | 0.219 | 0.261 |  |  |  |  |  |  |  |  |  |  |
| NCI-H2342 |  |  |  |  |  |  |  |  |  |  | 0.741 | 0.653 | 0.668 | 0.668 | 0.504 | 0.422 | 0.459 | 0.308 | 0.376 | 0.43 |
| SK-LU-1 | 1.25 | 1.06 | 0.74 | 0.481 | 0.422 | 0.866 | 0.761 | 0.487 | 0.376 | 0.332 | 0.64 | 0.547 | 0.568 | 0.422 | 0.343 |  |  |  |  |  |
| SK-MES-1 |  |  |  |  |  | 0.444 | 0.387 | 0.371 | 0.274 | 0.318 | 0.395 | 0.34 | 0.333 | 0.269 | 0.246 |  |  |  |  |  |
| SW 1573 | 1.16 | 0.826 | 0.711 | 0.286 | 0.255 | 1.25 | 0.829 | 1.04 | 0.519 | 0.27 | 0.496 | 0.316 | 0.38 | 0.195 | 0.189 |  |  |  |  |  |
| UMC-11 | 0.824 | 0.662 | 0.397 | 0.215 | 0.195 | 0.832 | 0.573 | 0.578 | 0.276 | 0.282 | 0.575 | 0.472 | 0.492 | 0.317 | 0.364 |  |  |  |  |  |
